Test [1] deals with acceleration of the heart rate induced by isoprenaline (anti-β effect). Briefly: Anti-β effect: reduction of isoprenaline-induced acceleration of the heart rate in anesthetized atropinized dog. Format: in vivo. The arrangement: key to Anti-β effect: +: for a reduction <50%; ++: for a reduction ≥50%; +++: for an almost complete reduction. How it is done:
The aim of this test is to determine the capacity of the compounds of the invention to reduce the increase in blood pressure induced by epinephrine (anti-αeffect) and the acceleration of the heart rate induced by isoprenaline (anti-βeffect) in the dog previously anesthetized with pentobarbital and atropinized.
(§1) First, are determined for each dog the dose of epinephrine (between 3 and 10 μg/kg) which causes a reproducible increase in arterial blood pressure of about 133.10^2 Pa and the dose of isoprenaline (1 to 2 μg/kg) which causes a reproducible increase in the heart rate of about 70 beats/minute. The doses of epinephrine and isoprenaline thus determined are injected alternatively every ten minutes and after the two consecutive reference responses have been obtained, a quantity of the test compound is administered by the intravenous route.
The percentage reduction of the acceleration of the heart rate caused by the test compound compared with the reference tachycardia previously measured (about 70 beats) is recorded.
In both cases, the results of the reduction in arterial pressure and heart rate are expressed as follows: […]

Test [2] has as its system increase in blood pressure induced by epinephrine (anti-α effect). The test is described as follows: Anti-α effect: reduction of epinephrine-induced increase in blood pressure in anesthetized atropinized dog. Format: in vivo. On the set-up: key: +: for a reduction <50%; ++: for a reduction ≥50%; +++: for an almost complete reduction. The procedure:
as §1, with “The aim of this test is to determine the capacity of the compounds of the invention to reduce the increase in blood pressure induced by epinephrine (anti-αeffect) and the acceleration of the heart rate induced by isoprenaline (anti-βeffect) in the dog previously anesthetized with pentobarbital and atropinized. First,” for “First,”, “route. The percentage reduction of the hypertension caused by the test compound in comparison with the reference hypertension previously obtained (about 100 mm Hg) is recorded. In both cases, the results of the reduction in arterial pressure and heart rate are expressed as follows: […]” for “route.”

The subject of test [3] is contractile response to potassium-induced depolarization on isolated rat aorta. Briefly: Calcium inhibitory properties: antagonism of contractile response to potassium-induced depolarization on isolated rat aorta. On the set-up: species or system rat (male Wistar). Conditions: percent of maximal contraction before incubation, 60 min. The text has this: It is well established that the depolarization of a smooth muscle membrane by potassium makes the latter permeable to extracellular calcium and induces muscle contraction. Consequently, the measurement of inhibition of the contractile response to depolarization by potassium or the measurement of relaxation of the tonic contraction on potassium depolarization can provide an evaluation of the potency of a compound as an inhibitor of the membrane permeability to Ca^++ ions. The technique used is the following: The aorta is removed from male Wistar rats weighing about 300 g and cut into strips approximately 40 mm long and 3 mm wide. These fragments are placed in a 25 ml isolated organ bath containing modified Krebs-bicarbonate solution (112 mM NaCL; 5 mM KCl; 25 mM NaHCO3; 1 mM KH2 PO4; 1.2 mM MgSO4; 2.5 mM CaCl2; 11.5 mM glucose, made up to 1000 ml with distilled water) maintained at 37° C. and through which a stream of carbon dioxide is passed. The preparation is connected to a force microsensor and the contractile response is recorded after amplification on a recorder. A tension of 2g is applied to the preparation. This latter is maintained in the modified Krebs-bicarbonate solution for 60 minutes, and then contractions are induced by replacing the Krebsbi-carbonate solution by a Krebs-potassium solution (17 mM NaCl; 100 mM KCl; 25 mM NaHCO3; 1 mM KH2 PO4; 1.2 mM MgSO4; 2.5 mM CaCl2; 11.5 mM glucose; made up to 1000 ml with distilled water). When the contractile response of the preparation has become reproducible, a given amount of the compound of the invention is introduced into the bath. Sixty minutes later a new spasm is induced by potassium depolarization. The results obtained on the aorta under investigation are then expressed in percent of the maximal contractional effect before incubation with the test substance. As examples, the following results were obtained, the compounds of formula (1) being in the form of the free base, the hydrochloride, oxalate or fumarate.

16 compounds from patent US5444056A, “Aminoalkoxyphenyl derivatives, process for their preparation and compositions containing them” (Sanofi, priority 1989, dated 1995) can be followed below.

Structures can show the parent of a compound that is named as a salt.

In the case of “2-isopropyl 8-methyl 1-{4-[3-(6,7-dimethoxy 1,2,3,4-tetrahydro N-isoquinolin-2-yl)propoxy]benzenesulfonyl}indolizine hydrogen oxalate [Ex. 2]”, the Anti-β effect entry in test [1] (intravenous, 0,065 mg/kg) was “+++”. Also, in test [2] (intravenous, 0,065 mg/kg), the Anti-α effect result is reported as “+++”.

Regarding `CCCCN(CCCC)CCCOc1ccc(S(=O)(=O)c2c(C(C)C)cn3ccccc23)cc1` [B, reference compound], the Anti-α effect result in test [2] (intravenous, 0,5 mg/kg) is listed as “++ (for a reduction ≥50%)”. Further, the “% maximal contractional effect” value in test [3] (10^-8 M, 0.01 µM) was determined as 61%.

For `COc1ccc(CCN(C)CCCOc2ccc(S(=O)(=O)c3c(C(C)C)cn4ccccc34)cc2)cc1OC` [C, reference compound], in test [1] (intravenous, 0,1 mg/kg), the Anti-β effect result was “+++”. In addition, the Anti-α effect result in test [2] (intravenous, 0,1 mg/kg) is “+++”. The “% maximal contractional effect” value in test [3] (10^-8 M, 0.01 µM) was 40,1%; in test [3] (10^-9 M, 0.001 µM), 81,7%.

As for `CCCCc1oc2ccc([N+](=O)[O-])cc2c1S(=O)(=O)c1ccc(OCCCN(C)CCc2ccc(OC)c(OC)c2)cc1` [Ex. 1, 2-n-butyl 3-{4-[3-(N-methyl N-3,4-dimethoxy-β-phenethylamino)propoxy]benzenesulfonyl} 5-nitro benzofuran hydrochloride], the Anti-α effect result in test [2] (intravenous, 3,23 mg/kg) was “+++”. For the same compound, the “% maximal contractional effect” value was 45,4% in test [3] (10^-6 M, 1 µM) and 70,1% in test [3] (10^-7 M, 0.1 µM).

In the case of `CCCCc1oc2ccc(N)cc2c1S(=O)(=O)c1ccc(OCCCN(C)CCc2ccc(OC)c(OC)c2)cc1` [Ex. 3, 5-amino 3-{4-[3-(N-methyl N-3,4-dimethoxy-β-phenethylamino)propoxy]benzenesulfonyl} 2-n-butyl benzofuran dihydrochloride], the Anti-α effect result in test [2] (intravenous, 1,31 mg/kg) was “+++”.

Turning to `CCCCc1oc2ccc(Br)cc2c1S(=O)(=O)c1ccc(OCCCN(C)CCc2ccc(OC)c(OC)c2)cc1` [Ex. 8, 5-bromo 2-n-butyl 3-{4[3-(N-methyl N-3,4-dimethoxy-β-phenethylamino)propoxy]benzenesulfonyl}benzofuran hydrogen oxalate], the Anti-β effect result in test [1] (intravenous, 1,5 mg/kg) is reported as “+++”. Besides, the Anti-α effect entry in test [2] (intravenous, 1,5 mg/kg) is “+++”. The “% maximal contractional effect” value in test [3] (10^-6 M, 1 µM) is reported as 61,5%; in test [3] (10^-7 M, 0.1 µM) it was 79,4%.

Take `COc1ccc(CCN(C)CCCOc2ccc(S(=O)(=O)c3c(C(C)C)n(CCN(C)C)c4ccccc34)cc2)cc1OC` [Ex. 11, 3-{4-[3-(N-methyl N-3,4-dimethoxy-β-phenethylamino)propoxy]benzenesulfonyl} 1-dimethylaminoethyl 2-isopropyl indole dioxalate]: in test [2] (intravenous, 1,6 mg/kg), the Anti-α effect entry is “++ (for a reduction ≥50%)”. The “% maximal contractional effect” value in test [3] (10^-7 M, 0.1 µM) is 66,7%; in test [3] (10^-8 M, 0.01 µM), 85,9%.

On to `COc1ccc(CCN(C)CCCOc2ccc(S(=O)(=O)c3c(C(C)C)n(C)c4ccc(Cl)cc34)cc2)cc1OC` [Ex. 13, 3-{4-[3-(N-methyl N-3,4-dimethoxy-β-phenethylamino)propoxy]benzenesulfonyl} 5-chloro 2-isopropyl 1-methylindole], for which the Anti-α effect entry in test [2] (intravenous, 0,6 mg/kg) is on record as “+++”. Further, the “% maximal contractional effect” value in test [3] (10^-7 M, 0.1 µM) is 35,5%; in test [3] (10^-8 M, 0.01 µM), 79,2%.

As to `COc1ccc(CCNCCCOc2ccc(S(=O)(=O)c3c(C(C)C)c(C)n4ccccc34)cc2)cc1OC` [Ex. 14, 2-isopropyl 3-methyl 1-{4-[3-(N-3,4-dimethoxy-β-phenethylamino)propoxy]benzenesulfonyl}indolizine hydrogen oxalate], the Anti-α effect entry in test [2] (intravenous, 0,12 mg/kg) is recorded as “+++”.

Take `CCCCN(CCCC)CCCOc1ccc(S(=O)(=O)c2c(C(C)C)n(C)c3ccc(Cl)cc23)cc1.O=C(O)C(=O)O` [Ex. 44, 1-methyl 2-isopropyl 3-{4-[3-(di-n-butylamino)propoxy]benzenesulfonyl} 5-chloro indole hydrogen oxalate]: the Anti-α effect result in test [2] (intravenous, 1,2 mg/kg) is recorded as “++ (for a reduction ≥50%)”. Also, the “% maximal contractional effect” value in test [3] (10^-7 M, 0.1 µM) is given as 69,6%; in test [3] (10^-8 M, 0.01 µM) it was 85,7%.

Turning to `CC(C)c1c(S(=O)(=O)c2ccc(OCCCN(C)C3CCCc4ccccc43)cc2)c2cc(Cl)ccc2n1C.O=C(O)C(=O)O` (stereo not shown) [Ex. 47, 1-methyl 2-isopropyl 3-{4-[3-(N-methyl N-1,2,3,4-tetrahydronaphth-1-ylamino)propoxy]benzenesulfonyl} 5-chloro indole hydrogen oxalate], the Anti-α effect result in test [2] (intravenous, 6,6 mg/kg) is recorded as “++ (for a reduction ≥50%)”. Further, the “% maximal contractional effect” value in test [3] (10^-7 M, 0.1 µM) is 75,3%; in test [3] (10^-8 M, 0.01 µM), 88,3%; in test [3] (10^-9 M, 0.001 µM) it was 91,4%.

Turning to `CCCCN(CCCC)CCCOc1ccc(S(=O)(=O)c2c(C)nn3cccc(C)c23)cc1.O=C(O)C(=O)O` [Ex. 49, 3-{4-[3-(di-n-butylamino)propoxy]benzenesulfonyl} 2,4-dimethyl pyrazolo[1,5-a]pyridine hydrogen oxalate], the Anti-α effect result in test [2] (intravenous, 0,28 mg/kg) is “+ (for a reduction <50%)”. Further, the “% maximal contractional effect” value is reported as 62,9% in test [3] (10^-8 M, 0.01 µM) and 75,7% in test [3] (10^-9 M, 0.001 µM).

Turning to `COc1ccc(CCN(C)CCCOc2ccc([S+]([O-])c3c(C(C)C)c4cc(Cl)ccc4n3C)cc2)cc1OC` (stereo not drawn) [Ex. 56, (5-chloro 3-isopropyl 1-methylindo-2yl)4-[3-(N-methyl N-3,4-dimethoxy-β-phenethylamino)propoxy]phenyl sulfoxide hydrogen oxalate], the Anti-α effect entry in test [2] (intravenous, 0,67 mg/kg) was “+++”. In addition, the “% maximal contractional effect” value in test [3] (10^-7 M, 0.1 µM) was 19,8%; in test [3] (10^-8 M, 0.01 µM) it was 61,3%; in test [3] (10^-9 M, 0.001 µM), 78,6%.

With `CCCCN(CCCC)CCCOc1ccc(S(=O)(=O)c2c(C(C)C)c3cc(OC)ccc3n2C)cc1.O=C(O)C(=O)O` [Ex. 64, 2-{4-[3-(di-n-butylamino)propoxy]benzenesulfonyl} 3-isopropyl 5-methoxy 1-methyl indole hydrogen oxalate], the Anti-α effect entry in test [2] (intravenous, 0,5 mg/kg) is given as “+++”. The “% maximal contractional effect” value is recorded as 69,3% in test [3] (10^-7 M, 0.1 µM); 72,6% in test [3] (10^-8 M, 0.01 µM); 93,9% in test [3] (10^-9 M, 0.001 µM).

Turning to `CCCCN(CCCC)CCCOc1ccc(S(=O)(=O)c2c(C(C)C)cn3cccc(C)c23)cc1` [Ex. 75, 1-{4-[3-(di-n-butylamino)propoxy]benzenesulfonyl} 2-isopropyl 8-methyl indolizine], the Anti-α effect result in test [2] (intravenous, 0,02 mg/kg) is on record as “++ (for a reduction ≥50%)”. Moreover, the “% maximal contractional effect” value is given as 9,7% in test [3] (10^-8 M, 0.01 µM); 51,4% in test [3] (10^-9 M, 0.001 µM); 83,8% in test [3] (10^-10 M, 0.0001 µM).

Take `COc1ccc(CCN(C)CCCOc2ccc(S(=O)(=O)c3c(C(C)C)cn4c(C)cccc34)cc2)cc1OC` [Ex. 79, 2-Isopropyl 5-methyl 1-{4-[3-(N-methyl N-3,4-dimethoxy-β-phenethylamino)propoxy]benzenesulfonyl}indolizine]: the Anti-α effect entry in test [2] (intravenous, 0,07 mg/kg) is reported as “+++”. Moreover, the “% maximal contractional effect” value in test [3] (10^-8 M, 0.01 µM) is 29,8%; in test [3] (10^-9 M, 0.001 µM), 77,9%; in test [3] (10^-10 M, 0.0001 µM), 87,3%.
